The results in this text go back to ChEMBL document CHEMBL3091417, “Substituted phenyl as a steroid A-ring mimetic: providing agonist activity to a class of arylsulfonamide nonsteroidal glucocorticoid ligands” (Bioorg Med Chem Lett, 2013).

The target in assay [1] is T1, Glucocorticoid receptor (Homo sapiens) (UniProt P04150).
T1 sequence (whole entry): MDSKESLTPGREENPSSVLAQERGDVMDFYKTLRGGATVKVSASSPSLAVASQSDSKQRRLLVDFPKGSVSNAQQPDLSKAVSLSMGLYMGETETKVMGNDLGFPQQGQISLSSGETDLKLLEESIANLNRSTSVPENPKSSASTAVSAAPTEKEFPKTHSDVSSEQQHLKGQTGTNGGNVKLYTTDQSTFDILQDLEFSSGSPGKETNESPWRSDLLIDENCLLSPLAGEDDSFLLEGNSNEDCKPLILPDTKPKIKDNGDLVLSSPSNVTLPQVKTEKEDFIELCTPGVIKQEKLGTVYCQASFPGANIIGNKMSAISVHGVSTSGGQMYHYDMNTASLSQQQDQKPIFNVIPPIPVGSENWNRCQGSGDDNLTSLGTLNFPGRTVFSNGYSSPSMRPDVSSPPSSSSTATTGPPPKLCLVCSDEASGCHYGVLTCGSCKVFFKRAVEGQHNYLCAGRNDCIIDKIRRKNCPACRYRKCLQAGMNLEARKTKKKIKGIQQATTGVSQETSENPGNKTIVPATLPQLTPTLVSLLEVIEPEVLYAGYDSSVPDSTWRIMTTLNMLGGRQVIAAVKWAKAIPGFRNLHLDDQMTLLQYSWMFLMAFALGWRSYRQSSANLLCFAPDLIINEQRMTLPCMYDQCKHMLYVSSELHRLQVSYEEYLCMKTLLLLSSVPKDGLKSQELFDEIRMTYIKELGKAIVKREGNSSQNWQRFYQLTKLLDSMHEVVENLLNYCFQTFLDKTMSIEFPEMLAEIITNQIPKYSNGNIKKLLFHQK
The assay can be described thus: Agonist activity at glucocorticoid receptor in human foreskin fibroblasts assessed as IL-1-mediated IL-6 synthesis at […] after 24 hrs relative to dexamethasone.

In assay [2] the target is T2, Glucocorticoid receptor (Homo sapiens, UniProt P04150).
T2 sequence (P04150 whole entry): T1 sequence (whole entry)
As to the kind of experiment: Agonist activity at glucocorticoid receptor in human foreskin fibroblasts assessed as IL-1-mediated IL-6 synthesis after 24 hrs.

Assay [3] addresses T3, Mineralocorticoid receptor (Homo sapiens, UniProt P08235).
T3 sequence (P08235 whole entry): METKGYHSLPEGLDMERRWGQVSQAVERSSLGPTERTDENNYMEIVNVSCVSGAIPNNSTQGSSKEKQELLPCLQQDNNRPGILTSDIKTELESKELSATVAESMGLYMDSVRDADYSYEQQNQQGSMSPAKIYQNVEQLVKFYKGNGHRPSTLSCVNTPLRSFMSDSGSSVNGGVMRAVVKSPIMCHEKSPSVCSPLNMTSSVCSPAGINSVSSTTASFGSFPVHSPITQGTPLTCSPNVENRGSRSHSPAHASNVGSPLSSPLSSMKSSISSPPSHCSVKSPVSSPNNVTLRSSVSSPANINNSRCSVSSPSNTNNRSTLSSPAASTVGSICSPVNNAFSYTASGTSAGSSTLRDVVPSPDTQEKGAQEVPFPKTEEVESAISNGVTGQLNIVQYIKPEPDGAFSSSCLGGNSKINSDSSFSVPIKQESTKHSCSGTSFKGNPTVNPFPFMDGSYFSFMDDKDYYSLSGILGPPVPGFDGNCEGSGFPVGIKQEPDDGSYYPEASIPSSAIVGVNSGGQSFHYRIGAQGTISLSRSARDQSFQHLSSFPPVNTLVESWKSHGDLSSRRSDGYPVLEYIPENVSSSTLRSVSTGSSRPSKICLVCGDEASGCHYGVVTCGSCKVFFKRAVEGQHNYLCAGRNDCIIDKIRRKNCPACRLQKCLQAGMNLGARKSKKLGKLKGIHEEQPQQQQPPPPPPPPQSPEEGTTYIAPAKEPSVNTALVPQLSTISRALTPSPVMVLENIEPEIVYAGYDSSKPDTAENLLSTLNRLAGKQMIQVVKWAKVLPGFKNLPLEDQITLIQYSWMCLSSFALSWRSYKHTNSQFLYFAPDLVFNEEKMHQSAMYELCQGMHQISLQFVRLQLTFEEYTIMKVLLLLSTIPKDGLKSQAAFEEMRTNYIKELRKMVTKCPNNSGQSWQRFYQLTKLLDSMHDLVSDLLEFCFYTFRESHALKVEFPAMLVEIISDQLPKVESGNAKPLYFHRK
As to the kind of experiment: Inhibition of mineralocorticoid receptor (unknown origin) expressed in baculovirus-infected insect cells by fluorescence polarization assay. On the technique in general: Polarisation of emitted light reports the rotation of a fluorescent probe.

The target in the next assay is T4, Progesterone receptor (Homo sapiens, UniProt P06401).
T4 sequence (P06401 whole entry): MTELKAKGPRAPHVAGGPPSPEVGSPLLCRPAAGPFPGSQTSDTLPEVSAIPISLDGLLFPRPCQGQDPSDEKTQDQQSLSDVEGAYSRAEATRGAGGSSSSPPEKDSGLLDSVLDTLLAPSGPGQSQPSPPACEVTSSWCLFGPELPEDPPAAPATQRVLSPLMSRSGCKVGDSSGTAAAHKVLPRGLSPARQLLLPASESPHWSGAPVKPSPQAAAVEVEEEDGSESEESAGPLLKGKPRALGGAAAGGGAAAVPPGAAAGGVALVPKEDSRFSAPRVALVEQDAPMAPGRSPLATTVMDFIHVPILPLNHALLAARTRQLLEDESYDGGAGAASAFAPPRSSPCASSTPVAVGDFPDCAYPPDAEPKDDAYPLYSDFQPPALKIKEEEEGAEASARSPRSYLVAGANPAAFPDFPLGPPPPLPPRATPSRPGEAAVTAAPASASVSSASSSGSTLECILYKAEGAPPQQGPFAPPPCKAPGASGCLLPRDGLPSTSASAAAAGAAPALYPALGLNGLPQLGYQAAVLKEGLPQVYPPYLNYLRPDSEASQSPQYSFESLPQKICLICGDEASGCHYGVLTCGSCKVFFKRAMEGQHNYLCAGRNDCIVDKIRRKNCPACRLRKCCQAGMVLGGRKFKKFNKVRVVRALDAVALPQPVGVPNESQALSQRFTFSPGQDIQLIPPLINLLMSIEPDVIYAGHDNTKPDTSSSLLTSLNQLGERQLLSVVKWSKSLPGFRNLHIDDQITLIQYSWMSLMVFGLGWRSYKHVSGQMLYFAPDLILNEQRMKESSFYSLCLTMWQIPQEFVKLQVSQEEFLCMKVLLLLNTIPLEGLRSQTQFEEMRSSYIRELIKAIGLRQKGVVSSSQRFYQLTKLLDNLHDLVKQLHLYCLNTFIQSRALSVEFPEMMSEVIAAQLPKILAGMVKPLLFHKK
As to the kind of experiment: Inhibition of progesterone receptor (unknown origin) expressed in baculovirus-infected insect cells by fluorescence polarization assay.

Assay [4] addresses T2, Glucocorticoid receptor. The assay can be described thus: Inhibition of glucocorticoid receptor (unknown origin) expressed in baculovirus-infected insect cells by fluorescence polarization assay.
The target of assay [5] is T1, Glucocorticoid receptor (Homo sapiens). The assay can be described thus: Inhibition of glucocorticoid receptor (unknown origin) expressed in baculovirus-infected insect cells up to 10 uM by fluorescence polarization assay.

Calls of active or inactive are those of the source. The calls are words filed in the database; no cut-off is given here.

Consider `CCC(Cc1ccc(C)cc1C)NS(=O)(=O)c1c(C)cc(C)cc1C` (stereo unspecified), for which the Emax in assay [1] stood at 0%. The IC50 on Glucocorticoid receptor [2] was greater than 10000 nM; in assay [3], 2400 nM; at Progesterone receptor it was 8200 nM; on Glucocorticoid receptor [4] it was 160 nM.
On the same counts, the results for `CCC(Cc1cccc(C)c1C)NS(=O)(=O)c1c(C)cc(C)cc1C` (stereo unspecified) are 19%, greater than 10000 nM, 350 nM, 2000 nM and 10 nM.
Turning to `CCC(Cc1cccc(C)c1)NS(=O)(=O)c1c(C)cc(C)cc1C` (stereo unspecified), the Emax in assay [1] came out at 0%. Moreover, the IC50 on Glucocorticoid receptor [2] is greater than 10000 nM; in assay [3], 400 nM; against Progesterone receptor, 5500 nM; against Glucocorticoid receptor [4] it was 23 nM.
For `CCC(Cc1cc(C)ccc1C)NS(=O)(=O)c1c(C)cc(C)cc1C` (stereo unspecified) the same measures were 0%, greater than 10000 nM, 320 nM, greater than 10000 nM and 25 nM.
For `CC[C@@H](Cc1ccc(O)cc1)NS(=O)(=O)c1c(C)cc(C)cc1C` the same measures were 0%, greater than 2000 nM, 5200 nM, 6400 nM and 120 nM.
On the same counts, the results for `CC[C@@H](Cc1ccc(O)cc1C)NS(=O)(=O)c1c(C)cc(C)cc1C` are 0%, greater than 2000 nM, 1000 nM, 2800 nM and 27 nM.
`CCC(Cc1ccc(O)c2ccccc12)NS(=O)(=O)c1c(C)cc(C)cc1C` (stereo unspecified): the Emax in assay [1] was determined as 80%. Besides, the IC50 at Glucocorticoid receptor [2] is 23 nM; in assay [3] it was 110 nM; against Progesterone receptor, 210 nM; at Glucocorticoid receptor [4] it was 3 nM.
On the same counts, the results for `CCC(Cc1cc(Cl)cc(Cl)c1)NS(=O)(=O)c1c(C)cc(C)cc1C` (stereo unspecified) are 0%, greater than 10000 nM, 150 nM, 1200 nM and 10 nM.
On the same counts, the results for `CCC(Cc1cc(C)cc(C)c1)NS(=O)(=O)c1c(C)cc(C)cc1C` (stereo unspecified) are 36%, greater than 10000 nM, 360 nM, 7400 nM and 11 nM.
On the same counts, the results for `CCC(Cc1cc(C)c(OC)c(C)c1)NS(=O)(=O)c1c(C)cc(C)cc1C` (stereo unspecified) are 0%, greater than 2000 nM, 1400 nM, greater than 10000 nM and 250 nM.
Turning to `CCC(Cc1cc(F)cc(F)c1)NS(=O)(=O)c1c(C)cc(C)cc1C` (stereo unspecified), the Emax in assay [1] worked out at 0%. Further, the IC50 on Glucocorticoid receptor [2] is greater than 10000 nM; in assay [3], 400 nM; on Progesterone receptor, 3400 nM; against Glucocorticoid receptor [4], 48 nM.
For `CCC(Cc1ccc(OC)c(C)c1C)NS(=O)(=O)c1c(C)cc(C)cc1C` (stereo unspecified) the same measures were 0%, greater than 2000 nM, 330 nM, 2100 nM and 62 nM.
For `CCC(Cc1ccccc1C)NS(=O)(=O)c1c(C)cc(C)cc1C` (stereo unspecified) the same measures were 0%, greater than 10000 nM, 700 nM, 4200 nM and 83 nM.
For `Cc1cc(C)c(S(=O)(=O)NC(C)Cc2ccccc2)c(C)c1` (stereo unspecified), the inhibition entry in assay [5] is “inactive”.
Turning to `CCC(Cc1ccc2ccccc2c1)NS(=O)(=O)c1c(C)cc(C)cc1C` (stereo unspecified), the Emax in assay [1] is 0%. The IC50 on Glucocorticoid receptor [2] was greater than 10000 nM; in assay [3], 400 nM; on Progesterone receptor, 720 nM; against Glucocorticoid receptor [4] it was 78 nM.
With `CCC(Cc1cccc2ccccc12)NS(=O)(=O)c1c(C)cc(C)cc1C` (stereo unspecified), the Emax in assay [1] was found to be 0%. The IC50 at Glucocorticoid receptor [2] is greater than 10000 nM; in assay [3], 190 nM; against Progesterone receptor, 1500 nM; against Glucocorticoid receptor [4], 10 nM.
`CCC(Cc1cc(C)c(O)c(C)c1)NS(=O)(=O)c1c(C)cc(C)cc1C` (stereo unspecified): the Emax in assay [1] was 58%. In addition, the IC50 at Glucocorticoid receptor [2] was 89 nM; in assay [3], 480 nM; against Progesterone receptor, 3500 nM; at Glucocorticoid receptor [4], 12 nM.
For the compound `CC[C@@H](Cc1ccc(O)c(C)c1)NS(=O)(=O)c1c(C)cc(C)cc1C`, the Emax in assay [1] came out at 0%. Moreover, the IC50 is greater than 2000 nM at Glucocorticoid receptor [2], 2300 nM in assay [3], 2500 nM against Progesterone receptor and 23 nM against Glucocorticoid receptor [4].
Take `CCC(Cc1c(C)cccc1C)NS(=O)(=O)c1c(C)cc(C)cc1C` (stereo unspecified): the Emax in assay [1] came to 0%. Besides, the IC50 is greater than 10000 nM on Glucocorticoid receptor [2], greater than 10000 nM in assay [3], greater than 10000 nM on Progesterone receptor and 110 nM at Glucocorticoid receptor [4].
On to `CCC(Cc1ccc(C)cc1)NS(=O)(=O)c1c(C)cc(C)cc1C` (stereo unspecified), for which the Emax in assay [1] was 0%. Besides, the IC50 at Glucocorticoid receptor [2] is greater than 10000 nM; in assay [3] it was 1100 nM; against Progesterone receptor, 3400 nM; against Glucocorticoid receptor [4] it was 230 nM.
On the same counts, the results for `CCC(Cc1ccc(O)c(C)c1C)NS(=O)(=O)c1c(C)cc(C)cc1C` (racemic) are 81%, 15 nM, 240 nM, 860 nM and 5 nM.
Take `CC[C@@H](Cc1ccc(O)c(C)c1C)NS(=O)(=O)c1c(C)cc(C)cc1C`: the Emax in assay [1] came out at 77%. Besides, the IC50 came out at 22 nM on Glucocorticoid receptor [2], 270 nM in assay [3], 620 nM against Progesterone receptor and 2 nM on Glucocorticoid receptor [4].

As a reminder, the Emax is the greatest response seen or fitted, relative to the assay's reference. A word on the IC50: it is the concentration that gives 50% inhibition.
